Where two headings read alike, the source gives them in different places.
Tested on: Bacterial Pool
Assay: Dow time-kill test in pH 7.4 hand dish-washing liquid, with synergy index (Kull)
Assay type: cell-based
Details: for Concentration required to achieve >=4 Log bacterial counts reduction of tested biocides: 37° C., pool of seven bacteria 1×10^6~1×10^7 CFU/ml in pH 7.4 hand dish-washing liquid, active ingredient basis, unit ppm from b8, not given

Compound | Concentration required to achieve >=4 Log bacterial counts reduction of tested biocides (24 h) [ppm] | Concentration for >=4 log bacterial kill (Table 4, Bacterial Pool, 24 hours, glutaraldehyde alone (QA) or in the mixture (Qa), read-out: Minimum Inhibitory Concentration (ppm) Glut) [µg/mL] | Minimum Inhibitory Concentration (ppm) Glut (Table 5, Bacterial Pool, 24 hours, glutaraldehyde alone (QA) or in the mixture (Qa)) [ppm] | Concentration for >=4 log bacterial kill (24 h, read-out: Minimum Inhibitory Concentration (ppm) SOPP) [µg/mL] | Minimum Inhibitory Concentration (ppm) SOPP (Table 5, Bacterial Pool, 24 hours, SOPP alone (QB) or in the mixture (Qb)) [ppm]
O=CCCCC=O [Glutaraldehyde, Pentane-1,5-dial] | 100 | 100 | 100 |  | 
Oc1ccccc1-c1ccccc1.[Na] [SOPP alone, sodium orthophenylphenol] | 358.5 |  |  | 358 | 358.5

Source: patent US20180116216A1, “MICROBICIDAL COMPOSITION CONTAINING GLUTARALDEHYDE AND ORTHOPHENYLPHENOL” (Dow Global Technologies LLC, priority 2015, published 2018)
